In patent US5786361A, “Pyridazino-, pyrimido-, pyrazino- and triazinoindoles, -pyrrolocycloalkenes or pyrrolooxocycloalkenes, or pyridopyrrolylpyrido compounds, compositions containing them, and use thereof to treat atherosclerosis” (Bayer Aktiengesellschaft, priority 1997, dated 1998):

Tested on: HepG2 cells
Test: Inhibition of the release of ApoB-100-associated lipoproteins from liver cells (HepG2), immunoassay
Format: cell-based
Details: Homo sapiens; HepG2 culture supernatant; light adsorption at 450 nm vs solvent control; release of ApoB-100-associated particles
Protocol: 1. Inhibition of the release of ApoB-100-associated lipoproteins
The test for detecting the inhibition of the release of ApoB-100-associatedlipoproteins from liver cells was carried out in vitro using cultured liver cells, preferably using cells of the human line HepG2. These cells are cultured under standard conditions in medium for the culture of eucaryotic cells, preferably in RPMI 1640 with 10% foetal calf serum. HepG2 cells synthesize and secrete into the culture supernatant ApoB-100-associated lipoprotein particles which in principle are constructed similarly to the VLDL and LDL particles which are to be found in the plasma.
These particles can be detected using an immunoassay for human LDL. This immunoassay is carried out using antibodies which have been induced in rabbits against human LDL under standard conditions. The anti-LDL antibodies (rabbit anti-LDL-Ab) were purified by affinity chromatography on an immunosorbent using human LDL. These purified rabbit anti-LDL-Ab are adsorbed on the surface of plastic. Expediently, this adsorption takes place on the plastic surface of microtitre plates having 96 depressions, preferably on MaxiSorp plates. If ApoB-100-associated particles are present in the supernatant of Hep-G2 cells, these can bind to the insolubilized rabbit anti-LDL-Abs, and an imunune complex results which is bound to the plastic surface. Unbound proteins are removed by washing. The immune complex on the plastic surface is detected using monoclonal antibodies which have been induced against human LDL under standard conditions and purified. These antibodies were conjugated to the enzyme peroxidase. Peroxidase converts the colourless substrate TMB into a coloured product in the presence of H2 O2. After acidification of the reaction mixture with H2 SO4, the specific light adsorption at 450 nm is determined, which is a measure of the amount of ApoB-100-associated particles which have been secreted into the culture supernatant by the HepG2 cells.
The IC50 value indicates at which substance concentration the light adsorption is inhibited by 50% in comparison with the control (solvent control without substance).

| IC50 [nM] | Structure (SMILES) |
| --- | --- |
| 8.9 | Cn1c(=O)c2c3ccccc3n(Cc3ccc([C@H](C(=O)N[C@@H](CO)c4ccccc4)C4CCCC4)cc3)c2c(=O)n1C [Example 16] |
| 1.8 | CSc1nnc2c3ccccc3n(Cc3ccc(C(C(=O)N[C@@H](CO)c4ccccc4)C4CCCC4)cc3)c2n1 (some centres unmarked) [Example 26] |

Further lines, the compound ahead of its results:

| Structure (SMILES) | IC50 [nM] |
| --- | --- |
| Cn1c(=O)c2c(c3ccccc3n2Cc2ccc([C@@H](C(=O)N[C@@H](CO)c3ccccc3)C3CCCC3)cc2)n(C)c1=O (mixture of isomers) [Example 2, 2-(R)- and 2-(S)-2-Cyclopentyl-2-(4-{1,3-dimethyl-1,5-dihydro-2,4-oxo-pyrimido-[5,4-b]indol-5-yl-methyl}phenyl)-aceticacidN-(2-hydroxy-1-(R)-1-phenyl-ethyl)amide] | 1.1 |
| Cc1nc(C)c2c3ccccc3n(Cc3ccc([C@@H](C(=O)N[C@@H](CO)c4ccccc4)C4CCCC4)cc3)c2n1 [Example 6] | 0.8 |
| Cc1nc(C)c2c3ccccc3n(Cc3ccc(C(C(=O)NCc4ccncc4)C4CCCC4)cc3)c2n1 (centres unmarked) [Example 10] | 1 |
